Laboratory results taken from patent publication US20230014907A1, “INHIBITORS OF APOL1 AND METHODS OF USING SAME” (Vertex Pharmaceuticals Incorporated, priority 2020, published 2023).

Assays:
G1 APOL1 = biological target: T1, G1 APOL1 (Homo sapiens, UniProt O14791, I384M/S342G); experiment: Acute APOL1 Thallium Assay with Inducible Stable Clones of HEK 293 Cells; type: cell-based; settings: HEK 293 inducible stable clones, G1 APOL1; read-out: Thallium Assay (IC50)
T1 construct: expressed in transfected cells
T1 sequence (O14791 28-398 S342G/I384M): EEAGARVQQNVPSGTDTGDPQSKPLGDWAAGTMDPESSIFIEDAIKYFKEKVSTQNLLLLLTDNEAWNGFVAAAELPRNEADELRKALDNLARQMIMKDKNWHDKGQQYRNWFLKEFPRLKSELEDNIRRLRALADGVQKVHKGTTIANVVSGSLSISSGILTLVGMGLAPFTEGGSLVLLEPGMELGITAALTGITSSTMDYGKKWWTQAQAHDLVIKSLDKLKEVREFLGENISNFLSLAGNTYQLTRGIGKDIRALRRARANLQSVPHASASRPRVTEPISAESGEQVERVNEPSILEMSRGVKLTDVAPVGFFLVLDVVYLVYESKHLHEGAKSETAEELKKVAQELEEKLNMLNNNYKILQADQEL
Outline: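 Pore activity was read as the fluorescence increase from Tl+ entering cells loaded with an AM-ester thallium indicator dye. The cells were tetracycline-inducible HEK293 T-Rex expressing G1 APOL1 (clone DC3.25), induced when plated at 26000 per well and incubated at 37° C.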

APOL1 G1 Protein = biological target: T2, APOL1 G1 Protein (Homo sapiens, UniProt O14791, I384M/S342G); experiment: Trypanosoma brucei brucei Lysis Assay Using APOL1 Recombinant Protein (AlamarBlue viability); type: cell-based; settings: read-out: Trypanosomal Assay (IC50)
T2 sequence (O14791 28-398 S342G/I384M): T1 sequence (O14791 28-398 S342G/I384M)
Outline: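 Lister 427 bloodstream-form trypanosomes seeded at 120,000 per well in phenol-red-free, serum-free medium and lysed with recombinant APOL1 variant protein. Viability read by AlamarBlue (resazurin) fluorescence. Percent viability relative to untreated wells, interpolated from a standard curve of seeded parasites.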

Work on COCC1(NC(=O)CCc2c(-c3ccc(F)cc3)[nH]c3c(F)cc(F)cc23)CC1 [Compound 102] yielded an IC50 (G1 APOL1) of 250 to 1000 nM and an IC50 (APOL1 G1 Protein) of 250 to 1000 nM.
With O=C(CCc1c(-c2ccc(F)cc2)[nH]c2c(F)ccc(F)c12)N[C@H]1CCOC1=O [Compound 233, 3-[4,7-difluoro-2-(4-fluorophenyl)-1H-indol-3-yl]-N-[(3S)-2-oxotetrahydrofuran-3-yl]propanamide] the IC50 (G1 APOL1) was 250 to 1000 nM and the IC50 (APOL1 G1 Protein) was over 1000 nM.
C[C@H](NC(=O)CCc1c(-c2ccc(F)cc2)[nH]c2ccc(F)cc12)C(N)=O [Compound 61] was tested, and the IC50 (G1 APOL1) was over 1000 nM and the IC50 (APOL1 G1 Protein) was over 1000 nM.
O=C(CCc1c(-c2ccc(F)cc2)[nH]c2c(F)cc(F)cc12)NCCC(=O)N1CC(O)C1 [Compound 191] showed an IC50 (G1 APOL1) of over 1000 nM and an IC50 (APOL1 G1 Protein) of over 1000 nM.
In the case of COCCNC(=O)CCc1c(-c2ccc(F)cc2)[nH]c2c(F)cc(F)cc12 [Compound 164], the IC50 (G1 APOL1) is reported as over 1000 nM and the IC50 (APOL1 G1 Protein) is reported as over 1000 nM.
With O=C(CCc1c(-c2ccc(F)cc2)[nH]c2c(F)cc(F)cc12)NCc1ccc(Cl)s1 [Compound 130] the IC50 (G1 APOL1) was over 1000 nM and the IC50 (APOL1 G1 Protein) was over 1000 nM.
Compound CC(CO)N(C)C(=O)CCc1c(-c2ccc(F)cc2)[nH]c2ccc(F)cc12 (centres unmarked) [Compound 51] has an IC50 (G1 APOL1) of over 1000 nM and an IC50 (APOL1 G1 Protein) of over 1000 nM.
In the case of NC1CCC(NC(=O)CCc2c(-c3ccc(F)cc3)[nH]c3ccc(F)cc23)C1 (centres unmarked) [Compound 7], the IC50 (G1 APOL1) is reported as over 1000 nM and the IC50 (APOL1 G1 Protein) is reported as over 1000 nM.
Compound O=C1CCC(NC(=O)CCc2c(-c3ccc(F)cc3)[nH]c3c(F)cc(F)cc23)C(=O)N1 (centres unmarked) [Compound 190] has an IC50 (G1 APOL1) of over 1000 nM and an IC50 (APOL1 G1 Protein) of over 1000 nM.
In the case of O=C(CCc1c(-c2ccc(F)cc2)[nH]c2c(F)cc(F)cc12)NC1(CCO)CC1 [Compound 154], the IC50 (G1 APOL1) is reported as over 1000 nM and the IC50 (APOL1 G1 Protein) is reported as over 1000 nM.
In the case of O=C(CCc1c(-c2ccc(F)cc2)[nH]c2c(F)cc(F)cc12)Nc1ncco1 [Compound 162], the IC50 (G1 APOL1) is reported as over 1000 nM and the IC50 (APOL1 G1 Protein) is reported as over 1000 nM.
CC(C)(C)OC(=O)NC1CCN(C(=O)CCc2c(-c3ccc(F)cc3)[nH]c3ccc(F)cc23)C1 (centres unmarked) [Compound 34] gave an IC50 (G1 APOL1) of over 1000 nM and an IC50 (APOL1 G1 Protein) of over 1000 nM.
O=C(CCc1c(-c2ccc(F)cc2)[nH]c2c(F)cc(F)cc12)NC1C(=O)Nc2ccc(F)cc21 (centres unmarked) [Compound 139] gave an IC50 (G1 APOL1) of over 1000 nM and an IC50 (APOL1 G1 Protein) of over 1000 nM.
Compound NC(=O)[C@H](CO)NC(=O)CCc1c(-c2ccc(F)cc2)[nH]c2c(F)cc(F)cc12 [Compound 123] has an IC50 (G1 APOL1) of over 1000 nM and an IC50 (APOL1 G1 Protein) of over 1000 nM.
With CC(CO)NC(=O)CCc1c(-c2ccc(F)cc2)[nH]c2ccc(F)cc12 (racemic) [Compound 9] the IC50 (G1 APOL1) was under 250 nM and the IC50 (APOL1 G1 Protein) was under 250 nM.
O=C(CCc1c(-c2ccc(F)cc2)[nH]c2ccc(F)cc12)N[C@H]1CC[C@@H]1O [Compound 29] showed an IC50 (G1 APOL1) of 250 to 1000 nM and an IC50 (APOL1 G1 Protein) of 250 to 1000 nM.
In the case of Cn1nnnc1NC(=O)CCc1c(-c2ccc(F)cc2)[nH]c2c(F)cc(F)cc12 [Compound 165], the IC50 (G1 APOL1) is reported as over 1000 nM and the IC50 (APOL1 G1 Protein) is reported as over 1000 nM.
With CNC(=O)C(C)NC(=O)CCc1c(-c2ccc(F)cc2)[nH]c2c(F)cc(F)cc12 (racemic) [Compound 100] the IC50 (G1 APOL1) was 250 to 1000 nM and the IC50 (APOL1 G1 Protein) was 250 to 1000 nM.
With O=C(CCc1c(-c2ccc(F)cc2)[nH]c2ccc(F)cc12)NC1(CO)CC1 [Compound 40] the IC50 (G1 APOL1) was 250 to 1000 nM and the IC50 (APOL1 G1 Protein) was 250 to 1000 nM.
N[C@H]1C[C@@H](NC(=O)CCc2c(-c3ccc(F)cc3)[nH]c3ccc(F)cc23)C1 [Compound 10] was tested, and the IC50 (G1 APOL1) was over 1000 nM and the IC50 (APOL1 G1 Protein) was over 1000 nM.
Compound O=C(CCc1c(-c2ccc(F)cc2)[nH]c2ccc(F)cc12)NC1(CO)COC1 [Compound 32] has an IC50 (G1 APOL1) of 250 to 1000 nM and an IC50 (APOL1 G1 Protein) of 250 to 1000 nM.
CC1CC(NC(=O)CCc2c(-c3ccc(F)cc3)[nH]c3c(F)cc(F)cc23)C(=O)O1 (mixture of isomers) [Compound 189] showed an IC50 (G1 APOL1) of over 1000 nM and an IC50 (APOL1 G1 Protein) of over 1000 nM.
CC(CNC(=O)OC(C)(C)C)NC(=O)CCc1c(-c2ccc(F)cc2)[nH]c2ccc(F)cc12 (racemic) [Compound 59] was tested, and the IC50 (G1 APOL1) was over 1000 nM and the IC50 (APOL1 G1 Protein) was over 1000 nM.
With CC(C)(C)OC(=O)NC1CN(C(=O)CCc2c(-c3ccc(F)cc3)[nH]c3ccc(F)cc23)C1 [Compound 52] the IC50 (G1 APOL1) was over 1000 nM and the IC50 (APOL1 G1 Protein) was over 1000 nM.
O=C(CCc1c(-c2ccc(F)cc2)[nH]c2c(F)cc(F)cc12)NCc1ncco1 [Compound 153] gave an IC50 (G1 APOL1) of over 1000 nM and an IC50 (APOL1 G1 Protein) of over 1000 nM.
